Assay results taken from patent US9833518B2, “Heteromultivalent particle compositions” (CASE WESTERN RESERVE UNIVERSITY, priority 2012, dated 2017).

Tests used:
[1] = tested on: fibrinogen-mediated platelet aggregation; assay: Aggregometry assay of free peptides in platelet-rich plasma; assay type: cell-based, human
Procedure: Affinity of free lRGD and cRGD peptides to bind activated platelets was characterized by ‘half maximal Inhibitory Concentration’ (IC50) value, which, in our assays, was the concentration of peptide required to inhibit fibrinogen-mediated platelet aggregation in platelet-rich plasma (PRP) by 50%, in an aggregometry (Bio/Data, PAP-4) set-up. PRP was prepared from citrated human whole blood by centrifugation at 800 RPM for 15 min at 25° C. 50 μl aliquots of PRP were warmed to 37° C. for 2 minutes, incubated with various concentrations of lRGD and cRGD peptide in the presence of agonist adenosine di-phosphate (ADP, 10 μM) and the maximal aggregation percentage was determined while stifling for 15 min. Consequently, from the maximal aggregation percentage and comparison to aggregation without peptides, inhibition percentage was determined.

GPIIb-IIIa (αIIbβ3) = GPIIb-IIIa (αIIbβ3) (Homo sapiens, UniProt P05106+P08514); conditions: reported in literature; cited from earlier work
GPIIb-IIIa (αIIbβ3), sequence (P08514 32-887 limits assumed): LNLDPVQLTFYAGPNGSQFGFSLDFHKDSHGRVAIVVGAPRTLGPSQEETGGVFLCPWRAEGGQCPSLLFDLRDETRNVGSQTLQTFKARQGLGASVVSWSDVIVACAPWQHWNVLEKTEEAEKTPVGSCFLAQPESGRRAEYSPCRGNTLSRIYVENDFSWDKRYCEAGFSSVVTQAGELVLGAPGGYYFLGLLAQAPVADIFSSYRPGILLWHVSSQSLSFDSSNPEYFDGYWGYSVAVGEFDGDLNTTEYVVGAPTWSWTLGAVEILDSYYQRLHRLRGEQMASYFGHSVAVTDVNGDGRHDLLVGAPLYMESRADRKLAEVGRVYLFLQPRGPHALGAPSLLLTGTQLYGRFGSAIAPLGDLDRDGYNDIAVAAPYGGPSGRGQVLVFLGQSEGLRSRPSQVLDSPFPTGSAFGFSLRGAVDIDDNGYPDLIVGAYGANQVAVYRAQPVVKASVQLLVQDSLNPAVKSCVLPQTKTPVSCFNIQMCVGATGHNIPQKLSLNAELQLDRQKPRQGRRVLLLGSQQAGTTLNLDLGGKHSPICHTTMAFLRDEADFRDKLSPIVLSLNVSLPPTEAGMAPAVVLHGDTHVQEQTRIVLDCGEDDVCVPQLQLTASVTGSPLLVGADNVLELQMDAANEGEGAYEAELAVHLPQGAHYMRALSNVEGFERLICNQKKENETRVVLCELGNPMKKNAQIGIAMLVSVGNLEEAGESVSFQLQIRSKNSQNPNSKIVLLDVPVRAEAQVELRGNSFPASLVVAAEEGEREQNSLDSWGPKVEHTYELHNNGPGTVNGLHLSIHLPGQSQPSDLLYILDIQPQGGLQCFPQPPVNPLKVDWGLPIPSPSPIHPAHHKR
GPIIb-IIIa (αIIbβ3), sequence (P08514 891-1039 partner limits assumed): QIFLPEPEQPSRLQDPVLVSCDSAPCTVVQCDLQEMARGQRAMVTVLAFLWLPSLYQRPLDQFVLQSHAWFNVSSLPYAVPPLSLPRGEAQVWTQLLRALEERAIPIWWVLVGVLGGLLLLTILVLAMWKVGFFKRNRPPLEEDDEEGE
GPIIb-IIIa (αIIbβ3), sequence (P05106 27-788): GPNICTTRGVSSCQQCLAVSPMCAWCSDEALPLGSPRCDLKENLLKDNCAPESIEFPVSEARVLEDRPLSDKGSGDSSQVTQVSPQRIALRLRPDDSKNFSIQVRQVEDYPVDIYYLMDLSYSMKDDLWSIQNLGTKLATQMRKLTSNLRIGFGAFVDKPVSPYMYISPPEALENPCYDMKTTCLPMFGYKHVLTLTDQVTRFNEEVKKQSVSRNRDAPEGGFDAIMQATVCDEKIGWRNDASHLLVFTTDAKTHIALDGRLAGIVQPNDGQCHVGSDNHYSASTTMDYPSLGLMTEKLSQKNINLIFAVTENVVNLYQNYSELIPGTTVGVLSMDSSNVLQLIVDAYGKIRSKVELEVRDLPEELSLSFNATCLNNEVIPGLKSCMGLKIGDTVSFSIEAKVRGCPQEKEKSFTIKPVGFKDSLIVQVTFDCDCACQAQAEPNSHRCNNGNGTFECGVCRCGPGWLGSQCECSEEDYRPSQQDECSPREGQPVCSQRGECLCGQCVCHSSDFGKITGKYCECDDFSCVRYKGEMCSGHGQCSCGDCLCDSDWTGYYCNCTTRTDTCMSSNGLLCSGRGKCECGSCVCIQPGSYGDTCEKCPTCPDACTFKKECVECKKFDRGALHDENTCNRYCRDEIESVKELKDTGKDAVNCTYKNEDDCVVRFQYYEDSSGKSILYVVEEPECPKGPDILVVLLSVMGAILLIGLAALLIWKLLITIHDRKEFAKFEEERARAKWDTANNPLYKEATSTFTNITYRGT

**Q.** What does the source list for cyclo-CNPRGDY(-OEt)RC [cRGD]?
**A.** IC50 by aggregometry, lower compared to lRGD ([1]; FIG. 18 legend): ~2 orders of magnitude; IC50 (inhibition of platelet aggregation) relative to lRGD ([1]; PRP, ADP 10 μM, 37° C.): about 1000 times lower; affinity and selectivity for GPIIb-IIIa compared with αvβ3, αvβ5 and α5β1 (GPIIb-IIIa (αIIbβ3)): high affinity and selectivity for GPIIb-IIIa
